# From patent US20230331685A1, “HERBICIDAL COMPOUNDS AND METHODS OF USE THEREOF” (AG Plenus Ltd, priority 2020, published 2023)
# How the values were obtained:
# Format in all cases: in vivo
# Phalaris minor = experiment: LTP post-emergence greenhouse test; conditions: Dosage 2000 g/ha
# Lolium multiflorum = experiment: LTP post-emergence greenhouse test; conditions: Dosage 2000 g/ha
# Echinochloa crus-galli = experiment: LTP post-emergence greenhouse test; conditions: Dosage 2000 g/ha
# Digitaria sanguinalis = experiment: LTP post-emergence greenhouse test; conditions: Dosage 2000 g/ha
# Setaria viridis = experiment: LTP post-emergence greenhouse test; conditions: Dosage 2000 g/ha
# Alopecurus myosuroides = experiment: LTP post-emergence greenhouse test; conditions: Dosage 2000 g/ha
# Lolium perenne = experiment: LTP post-emergence greenhouse test; conditions: Dosage 2000 g/ha
# Poa annua = experiment: LTP post-emergence greenhouse test; conditions: Dosage 2000 g/ha
# Echinochloa colon = experiment: LTP post-emergence greenhouse test; conditions: Dosage 2000 g/ha
# Amaranthus tuberculatus = experiment: LTP post-emergence greenhouse test; conditions: Dosage 2000 g/ha
# Method: A basic panel of eight weed species (Table 3) sowed in 4×4×7 cm plastic pots containing a garden mix (klasmann). Each specie was sowed in a separate pot. In each pot, 10-15 seeds were sowed according to the specie viability. Timing of application determined at a 1-2 true leaf stage. The plants grew for 30 days in a controlled greenhouse (26±2° C. day, 20±2° C. night). Hood irrigation (tap water+Shefer 5:3:8 8 mM) was given at a 50% water content by weight. Two days before application, the tested plants thinned down to three plants per pot. Compounds were soluble in water (DDW), and commercial herbicide control was soluble in formulation B (Table 4). Before application, 1% (v/v) crop oil and 0.02% (v/v) surfactant (Tergitol™ 15-S-7) were added to the solution. […] Plants were evaluated at 3 time points (4, 8, 12 days after application (DAA)). At each time point, visual phenotyping was recorded using a scale of 0-6 (0: no visible effect, 6: maximum effect). […]
# Post-emergence advanced wide panel experiment included 24 weed species (Table 5). […] Visual phenotyping was recorded at 4, 11, 17 and 20 DAA using a scale of 0-6 (0: no visible effect, 6: maximum effect). […] Statistical analysis for visual phenotyping determined by a median value of ≥3.5 and Fisher test (pval≤0.05). Statistical analysis for dry weight determined by % inhibition ≥50 and T test (pval≤0.05), as well as Wilcox test (pval≤0.05).
# Chenopodium album = experiment: LTP post-emergence greenhouse test; conditions: Dosage 2000 g/ha
# Conyza canadensis = experiment: LTP post-emergence greenhouse test; conditions: Dosage 2000 g/ha
# Galium aparine = experiment: LTP post-emergence greenhouse test; conditions: Dosage 2000 g/ha
# Stellaria media = experiment: LTP post-emergence greenhouse test; conditions: Dosage 2000 g/ha
# Solanum nigrum = experiment: LTP post-emergence greenhouse test; conditions: Dosage 2000 g/ha
# Amaranthus palmeri = experiment: LTP post-emergence greenhouse test; conditions: Dosage 2000 g/ha
# Matricaria chamomilla = experiment: LTP post-emergence greenhouse test; conditions: Dosage 2000 g/ha
# Abutilon theophrasti = experiment: LTP post-emergence greenhouse test; conditions: Dosage 2000 g/ha
# Ambrosia artemisiifolia = experiment: LTP post-emergence greenhouse test; conditions: Dosage 2000 g/ha
# Eragrostis teff = experiment: HTPS pre-emergence application on monocot model plant
# Method: The plates were placed in a controlled greenhouse in a random order inside a bath which allows flooding irrigation with tap water supplemented with a fertilizer. Applied compounds were dissolved into a final solution of 50% acetone, 49.9% DDW, 0.1% tween-20. A 96 well plate was used as a stock plate for preparing application solutions for 8 repeats. Each row contained different concentrations per chemical. Maximal concentration for application was 1.5 Kg/Ha and dilution factor is 2.5. Chemical application was performed one day after thinning out in a chemical hood. […] applied on first two true leaves in each well using 12 channel pipettes. Data collection: RGB (red, green, blue) data for green area per well was documented using camera. Data is collected at a few time points during the experiment: one day after thinning and before chemical application, two-, six- or nine-days post application. During the last two documentations, visual phenotyping was performed. Data analysis: Given RGB results and visual phenotype scores, a student t-test conducted to compare between treatment and control performance for continuous data (RGB) and Fisher exact test to analyze the non-continuous data (phenotypic scores). Dose-Response curves are generated for each treatment to infer ED50 and max. inhibition parameters, using treatment's log concentration range as the […] and normalized green area. […] Plate imaging performed at 11 and 18 DAA. RGB data for green area per well was documented and used to extract % inhibition. Dose-Response curves were built for each treatment to infer EC50, EC75 and EC90 parameters, using treatment's log concentration range as the independent variable and normalized green area as the dependent variable. Treatments were compared to controls performance given RGB results and using student's t-test (p-val≤0.05). Compounds 104-154 were applied in either or both pre- and post-emergence mode to either or both monocot and dicot model plants, following the methods described above. The compounds were applied as a gradient of concentrations as listed above, from which the ED50 was calculated.
# Arabidopsis thaliana = experiment: HTPS post-emergence application on miniature dicot model plant; conditions: Arabidopsis thaliana, post-emergence, green area (RGB), read-out: Max Inhibition (%)
# Method: The plates were placed in a controlled greenhouse in a random order inside a bath which allows flooding irrigation with tap water supplemented with a fertilizer. Applied compounds were dissolved into a final solution of 50% acetone, 49.9% DDW, 0.1% tween-20. A 96 well plate was used as a stock plate for preparing application solutions for 8 repeats. Each row contained different concentrations per chemical. Maximal concentration for application was 1.5 Kg/Ha and dilution factor is 2.5. Chemical application was performed one day after thinning out in a chemical hood. […] applied on first two true leaves in each well using 12 channel pipettes. Data collection: RGB (red, green, blue) data for green area per well was documented using camera. Data is collected at a few time points during the experiment: one day after thinning and before chemical application, two-, six- or nine-days post application. During the last two documentations, visual phenotyping was performed. Data analysis: Given RGB results and visual phenotype scores, a student t-test conducted to compare between treatment and control performance for continuous data (RGB) and Fisher exact test to analyze the non-continuous data (phenotypic scores). Dose-Response curves are generated for each treatment to infer ED50 and max. inhibition parameters, using treatment's log concentration range as the […] variable and normalized green area. Plate imaging performed at 11 and 18 DAA. RGB data for green area per well was documented and used to extract % inhibition. Dose-Response curves were built for each treatment to infer EC50, EC75 and EC90 parameters, using treatment's log concentration range as the independent variable and normalized green area as the dependent variable. Treatments were compared to controls performance given RGB results and using student's t-test (p-val≤0.05). Compounds 104-154 were applied in either or both pre- and post-emergence mode to either or both monocot and dicot model plants, following the methods described above. The compounds were applied as a gradient of concentrations as listed above, from which the ED50 was calculated.
# [1] = test system: monocot and eudicot weeds species; experiment: In-planta LTP weed panel, overall assessment; conditions: applied post-emergence; both monocot and dicot species
compound,measurement,setting,value
NC1CCCC(CCCC(=O)O)C1 (centres unmarked) [Compound 145],"Herbicidal activity (In-planta), LTP-Post emergence, Phalaris minor",Phalaris minor,0
same,"Herbicidal activity (In-planta), LTP-Post emergence, Lolium multiflorum",Lolium multiflorum,20-40
same,"Herbicidal activity (In-planta), LTP-Post emergence, Echinochloa crus-galli",Echinochloa crus-galli,60-80
same,"Herbicidal activity (In-planta), LTP-Post emergence, Digitaria sanguinalis",Digitaria sanguinalis,60-80
same,"Herbicidal activity (In-planta), LTP-Post emergence, Setaria viridis",Setaria viridis,60
same,"Herbicidal activity (In-planta), LTP-Post emergence, Alopecurus myosuroides",Alopecurus myosuroides,60-80
same,"Herbicidal activity (In-planta), LTP-Post emergence, Lolium perenne",Lolium perenne,40-60
same,"Herbicidal activity (In-planta), LTP-Post emergence, Poa annua",Poa annua,20-40
same,"Herbicidal activity (In-planta), LTP-Post emergence, Echinochloa colon",Echinochloa colon,20-40
same,"Herbicidal activity (In-planta), LTP-Post emergence, Amaranthus tuberculatus",Amaranthus tuberculatus,40-60
same,"Herbicidal activity (In-planta), LTP-Post emergence, Chenopodium album",Chenopodium album,40-60
same,"Herbicidal activity (In-planta), LTP-Post emergence, Conyza canadensis",Conyza canadensis,40-60
same,"Herbicidal activity (In-planta), LTP-Post emergence, Galium aparine",Galium aparine,40-60
same,"Herbicidal activity (In-planta), LTP-Post emergence, Stellaria media",Stellaria media,20-40
same,"Herbicidal activity (In-planta), LTP-Post emergence, Solanum nigrum",Solanum nigrum,40-60
same,"Herbicidal activity (In-planta), LTP-Post emergence, Amaranthus palmeri",Amaranthus palmeri,20-40
same,"Herbicidal activity (In-planta), LTP-Post emergence, Matricaria chamomilla",Matricaria chamomilla,0
same,"Herbicidal activity (In-planta), LTP-Post emergence, Abutilon theophrasti",Abutilon theophrasti,20-40
same,"Herbicidal activity (In-planta), LTP-Post emergence, Ambrosia artemisiifolia",Ambrosia artemisiifolia,20-40
same,ED50 (g/ha),Eragrostis teff; dose-response of normalized green area,16.8 g/ha
same,Max Inhibition (%),Eragrostis teff; green area (RGB),100%
same,Emax,Arabidopsis thaliana,100%
same,activity (in words),[1],good to moderate activity
